Laboratory results: patent US9962350B2, “Agent for improving normal development rate of fertilized eggs” (SBI Pharmaceuticals Co., Ltd., priority 2014, dated 2018)

Key:
[1] = system: fertilized eggs obtained by the mating between female mice of the BDF2 lineage and male mice of the BDF1 lineage; test: In vitro culture of natural mating-derived fertilized eggs (BDF2 females x BDF1 males) with ALA; embryo development; format: cell-based, mouse; settings: 1 μM ALA
Method: Aside therefrom, a drop of 100 μL of M16 medium covered with mineral oil (manufactured by Sigma-Aldrich Corp.) and supplemented with ALA hydrochloride (manufactured by SBI Pharmaceuticals Co., Ltd.) at a final concentration of 0 μM (control), 0.1 μM, 0.5 μM, or 1 μM was prepared in a 35 mm Petri dish and left standing at 37° C. in a CO2 incubator. 29 or 30 of the cumulus cell-free fertilized eggs were transferred to the resulting drop and cultured in vitro at 37° C. in a CO2 incubator.
After a lapse of 24 hours, 48 hours, 72 hours, and 96 hours from the start of the in vitro culture (0 hours) in the drop, the developmental stage of each embryo was determined by observation under a stereoscopic microscope, and the number of embryos whose development progressed normally and change in development rate were calculated. Specifically, the number of 2-cell eggs 24 hours after the start of the culture, the number of 3-cell, 4-cell, and 8-cell eggs 48 hours thereafter, the number of morulae and blastocysts 72 hours thereafter, and the number of blastocysts 96 hours thereafter were counted as embryos whose development progressed normally at each stage. The development rate with the number of fertilized eggs (0 hours) defined as 100% is shown in Table 3 and the graph of FIG. 1. For the evaluation of the development rate, the percentage of the number of embryos whose development progressed normally 24 hours, 48 hours, 72 hours, and 96 hours after the start of the culture was calculated with the number of fertilized eggs (0 hours) defined as 100%, and used as a normal development rate. Because of the natural mating, the number of recovered fertilized eggs (0 hours) includes unfertilized eggs to some extent, and there is the possibility that the content of unfertilized eggs varies accidentally among fertilized eggs (0 hours) populations distributed to the respective condition groups even if the fertilized eggs (0 hours) populations have been recovered in the same experiment. The development rate calculated with the number of 2-cell embryos 24 hours postfertilization defined as 100% was calculated in order to eliminate the influence of the content of unfertilized eggs that varies accidentally among the respective condition groups. In short, in order to calculate the development rate on the basis of the number of eggs that reliably started embryo development, the development rate with the number of 2-cell embryos 24 hours postfertilization defined as 100% is shown in Table 4 and the graph of FIG. 2. The results of each test group were statistically analyzed by the square test (chi-square test) with a statistically significant difference of p<0.01 (**) and p<0.05 (*).
The study was conducted in the same way as in Example 1 except that: the female mice used to harvest fertilized eggs were female mice of the BDF2 lineage (5 to 24 weeks old, body weight: 16 to 25 g) obtained by the mating between females and males of the BDF1 lineage (F1 of C57BL/6 females×DBA/2 males); the male mice used for mating were male mice of the BDF1 lineage (F1 of C57BL/6 females×DBA/2 males) (46 to 52 weeks old, body weight: 30 to 45 g); and 1 μM ALA was studied. The results are shown in Tables 5 to 7 below and FIGS. 3 and 4.

[2] = system: C57BL/6J fertilized eggs (natural mating); test: Low-temperature in vitro culture of natural mating-derived fertilized eggs in KSOM or mWM with ALA; embryo development; format: cell-based, mouse; settings: 35° C.
Method: According to a routine method of controlled ovarian hyperstimulation, 5 U (units) of equine chorionic gonadotropin (serum gonadotropin) (ASKA Pharmaceutical Co., Ltd.) were intraperitoneally administered to each female mouse of the C57BL/6J lineage (4 weeks old to 6 weeks old). 45 to 48 hours later, 5 U (units) of gonadotropin (human chorionic gonadotropin) (ASKA Pharmaceutical Co., Ltd.) were intraperitoneally administered thereto. Immediately after the administration of gonadotropin, each female mouse was mated with each male mouse of the C57BL/6J lineage. In the next morning, the oviducts were recovered into physiological saline (0.9% (w/v) NaCl) from the female mice that were able to be confirmed to have a vaginal plug. The oviducts were perfused with KSOM or mWM (both were purchased from ARK Resource Co., Ltd., http://www.ark-resource.co.jp/seihin/cryopreservation-liquid/) containing hyaluronidase (approximately 300 μg/ml, Sigma-Aldrich Corp.). After removal of cumulus cells from the obtained fertilized eggs, the fertilized eggs were recovered. In order to remove hyaluronidase, the fertilized eggs were washed with each medium (KSOM or mWM) and maintained in KSOM or mWM (ARK Resource Co., Ltd.) in an incubator of 37° C. and 5% CO2 until the fertilized eggs were recovered from all of the female mice. These two media used are typical media for use in mouse embryo culture. KSOM is a typical low glucose-containing medium, whereas mWM is a high glucose-containing medium.
20 to 50 of the recovered fertilized eggs were transferred into a drop (covered with mineral oil (Sigma-Aldrich Corp.)) consisting of 100 μl of ALA-unsupplemented or ALA-supplemented (1 μM or 3 μM) medium (KSOM or mWM). Subsequently, the fertilized eggs were cultured under two culture conditions: a condition of 37° C. and 5% CO2 and a condition of 35° C. and 5% CO2. The number of 2-cell eggs was counted 24 hours after the fertilized egg harvest, and the number of blastocysts was counted 96 hours thereafter. The development rate was evaluated in the same way as in Example 1. The results about KSOM are shown in Tables 8 to 10 and FIGS. 5 and 6. The results about mWM are shown in Tables 11 to 13 and FIGS. 7 and 8.

[3] = 1 μM ALA, mWM, 96 hr (blastocysts)
[4] = 3 μM ALA, mWM, 96 hr (blastocysts)

With `NCC(=O)CCC(=O)O` [ALA, 5-aminolevulinic acid] the “The number of developed embryos” value ([1]; 24 hr) was 41, the “development rate with the number of fertilized eggs (0 hr) defined as 100%” value (“development rate … (0 hr) defined as 100%” below) ([1]; 24 hr) was 82% and the “The number of developed embryos” value ([1]; 48 hr) was 41. For the same compound, the “development rate with the number of 2-cell embryos 24 hours postfertilization defined as 100%” value ([1]; 48 hr) was 100%, the “development rate … (0 hr) defined as 100%” value ([1]; 48 hr) was 82% and the “The number of developed embryos” value ([1]; 72 hr) was 40. For the same compound, the “development rate … (0 hr) defined as 100%” value ([1]; 72 hr) was 80%, the “The number of developed embryos” value ([1]; 96 hr) was 40 and the “development rate … (0 hr) defined as 100%” value ([1]; 96 hr) was 80%. For the same compound, the “development rate as compared with the ALA-unsupplemented control (in words)” value ([1]; number of fertilized eggs (0 hours) defined as 100%) was “elevate the development rate”, the “The number of developed embryos in KSOM” value ([2]; 1 μM ALA, 24 hr) was 39 and the “development rate with the number of fertilized eggs (0 hr) in KSOM defined as 100%” value ([2]; 1 μM ALA, 24 hr) was 67%. For the same compound, the “The number of developed embryos in KSOM” value ([2]; 1 μM ALA, 48 hr) was 23, the “development rate with the number of 2-cell embryos 24 hours postfertilization in KSOM defined as 100%” value ([2]; 1 μM ALA, 48 hr) was 59% and the “development rate with the number of fertilized eggs (0 hr) in KSOM defined as 100%” value ([2]; 1 μM ALA, 48 hr) was 40%. For the same compound, the “The number of developed embryos in KSOM” value ([2]; 1 μM ALA, 96 hr) was 6, the “development rate with the number of 2-cell embryos 24 hours postfertilization in KSOM defined as 100%” value ([2]; 1 μM ALA, 96 hr (blastocysts)) was 15% and the “development rate with the number of fertilized eggs (0 hr) in KSOM defined as 100%” value ([2]; 1 μM ALA, 96 hr (blastocysts)) was 10%. For the same compound, the “The number of developed embryos in mWM” value ([2]; 1 μM ALA, mWM, 24 hr) was 59, the “development rate with the number of fertilized eggs (0 hr) in mWM defined as 100%” value (“development rate … (0 hr) in mWM defined as 100%” for short) ([2]; 1 μM ALA, mWM, 24 hr) was 50% and the “The number of developed embryos in mWM” value ([2]; 1 μM ALA, mWM, 48 hr) was 48. The “development rate with the number of 2-cell embryos 24 hours postfertilization in mWM defined as 100%” value ([2]; 1 μM ALA, mWM, 48 hr) was 81%, the “development rate … (0 hr) in mWM defined as 100%” value ([2]; 1 μM ALA, mWM, 48 hr) was 39% and the “elevation of development rate to blastocysts vs control (in words)” value ([2]; 1 μM ALA, mWM, 96 hours (Tables 12 and 13)) was “no significant elevation”. For the same compound, the “The number of developed embryos in mWM” value ([2]; 1 μM ALA, mWM, 96 hr) was 27, the “development rate with the number of 2-cell embryos 24 hours postfertilization in mWM defined as 100%” value [2, 3] was 46% and the “development rate … (0 hr) in mWM defined as 100%” value [2, 3] was 22%. For the same compound, the “The number of developed embryos in mWM” value ([2]; 3 μM ALA, mWM, 24 hr) was 62, the “development rate … (0 hr) in mWM defined as 100%” value ([2]; 3 μM ALA, mWM, 24 hr) was 50% and the “The number of developed embryos in mWM” value ([2]; 3 μM ALA, mWM, 48 hr) was 62. For the same compound, the “development rate with the number of 2-cell embryos 24 hours postfertilization in mWM defined as 100%” value ([2]; 3 μM ALA, mWM, 48 hr) was 100%, the “development rate … (0 hr) in mWM defined as 100%” value ([2]; 3 μM ALA, mWM, 48 hr) was 50% and the “The number of developed embryos in mWM” value ([2]; 3 μM ALA, mWM, 96 hr) was 40. For the same compound, the “development rate with the number of 2-cell embryos 24 hours postfertilization in mWM defined as 100%” value [2, 4] was 65% and the “development rate … (0 hr) in mWM defined as 100%” value [2, 4] was 32%.
